From patent US8815796B2, “Polyheterocyclic compounds highly potent as HCV inhibitors” (AB Pharma Ltd., priority 2010, dated 2014)
Like-named read-outs stand apart in the source and are kept apart here.

Target: T1, HCV NS3-4A protease (Hepatitis C virus genotype 1a, UniProt P27958)
T1 construct: HCV NS3-4A protease
Assay: HCV NS3-4A protease assay in vitro (FRET-S substrate)
Assay type: biochemical
Description: HCV NS3-4A Protease Assay In Vitro.
The assay was conducted in Buffer A containing 30 mM NaCl, 5 mM CaCl2, 10 mM DTT, 50 mM Tris (pH7.8), using the Ac-Asp-Glu-Asp(EDANS)-Glu-Glu-Abu-ψ-[COO]-Ala-Ser-Lys (DABCYL)-NH2 (FRET-S) fluorescent peptide (AnaSpec, USA) as substrate. Briefly, 140 μL buffer A, 20 μL compounds dissolved in buffer A with different concentration and 20 μL HCV NS3-4A protease diluted in buffer A were added into 96-well plate respectively and mixed well. The reaction was initiate with adding 20 μL of FRET-S. Reactions were continuously monitored at 37° C. using a BMG Polarstar Galaxy (MTX Lab Systems, Inc. USA), with excitation and emission filters of 355 nm and 520 nm, respectively. The 50% inhibitory concentration (IC50) was calculated with Reed & Muench methods.

[1] = HCV NS3-4A protease inhibition, 37° C., class symbols, read-out: NS3-NS4A IC50

T1 sequence (P27958 1027-1657): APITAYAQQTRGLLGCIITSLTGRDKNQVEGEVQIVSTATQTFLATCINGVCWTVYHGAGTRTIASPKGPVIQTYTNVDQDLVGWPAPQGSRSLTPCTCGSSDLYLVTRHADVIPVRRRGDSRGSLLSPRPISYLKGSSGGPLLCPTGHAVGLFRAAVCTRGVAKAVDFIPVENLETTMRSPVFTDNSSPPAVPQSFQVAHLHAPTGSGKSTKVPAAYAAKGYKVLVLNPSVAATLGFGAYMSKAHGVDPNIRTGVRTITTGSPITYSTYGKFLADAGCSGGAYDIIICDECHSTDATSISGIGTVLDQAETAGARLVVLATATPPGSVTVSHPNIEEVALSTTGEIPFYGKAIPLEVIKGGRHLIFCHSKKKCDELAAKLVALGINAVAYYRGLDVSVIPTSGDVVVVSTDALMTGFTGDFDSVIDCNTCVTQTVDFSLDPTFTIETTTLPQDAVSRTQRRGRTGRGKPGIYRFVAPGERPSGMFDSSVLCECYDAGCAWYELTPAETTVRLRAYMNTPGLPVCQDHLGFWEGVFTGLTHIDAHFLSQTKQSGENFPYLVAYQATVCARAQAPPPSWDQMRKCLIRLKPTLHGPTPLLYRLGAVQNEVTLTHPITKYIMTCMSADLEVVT
T1 sequence (P27958 1658-1711): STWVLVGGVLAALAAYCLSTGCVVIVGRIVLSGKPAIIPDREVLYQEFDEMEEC

| SMILES | IC50 [1] | IC50 |
| --- | --- | --- |
| CC(C)(C)OC(=O)N[C@H]1CCCCC/C=C\[C@@H]2C[C@@]2(C(=O)NS(=O)(=O)C2CC2)NC(=O)[C@@H]2C[C@@H](OC(=O)N3Cc4cc5c(cc4C3)OCO5)CN2C1=O [Compound 12d] | < 30 nM | – |
| CC[C@H]1C[C@@]1(NC(=O)C1C[C@@H](OC(=O)N2Cc3cc4c(cc3C2)OCO4)CN1C(=O)[C@@H](NC(=O)[C@@H](NS(C)(=O)=O)C1CCCCC1)C(C)(C)C)C(=O)NS(=O)(=O)C1CC1 (stereo partly shown) [Compound 30n] | < 30 nM | – |
| CC(C)S(=O)(=O)NC(=O)[C@@]12C[C@H]1/C=C\CCCCCN(C)C(=O)N1CC(OC(=O)N3Cc4cc5c(cc4C3)OCO5)C[C@H]1C(=O)N2 (stereo partly shown) [Compound 27c] | 30 to 200 nM | – |
| CC[C@H]1C[C@@]1(NC(=O)C1C[C@@H](OC(=O)N2Cc3cc4c(cc3C2)OCO4)CN1C(=O)[C@@H](NC(=O)[C@@H](NC(=O)OC(C)C)C1CCCCC1)C(C)(C)C)C(=O)NS(=O)(=O)C1CC1 (stereo partly shown) [Compound 30w] | – | < 30 nM |
| CC(C)(C)OC(=O)N[C@H]1CCCCC/C=C\[C@@H]2C[C@@]2(C(=O)O)NC(=O)[C@@H]2C[C@@H](OC(=O)N3Cc4cc5c(cc4C3)OCO5)CN2C1=O [Compound 11d] | > 200 nM | – |
| CN1CCCCC/C=C\[C@@H]2C[C@@]2(C(=O)NS(=O)(=O)C2CC2)NC(=O)[C@@H]2CC(OC(=O)N3Cc4cc5c(cc4C3)OCCO5)CN2C1=O (stereo partly shown) [Compound 27b] | 30 to 200 nM | – |
| O=C(N[C@H]1CCCCC/C=C\[C@@H]2C[C@@]2(C(=O)NS(=O)(=O)C2CC2)NC(=O)[C@@H]2C[C@@H](OC(=O)N3Cc4cc5c(cc4C3)OCO5)CN2C1=O)OC1CCCC1 [Compound 12r] | < 30 nM | – |
| CCC[C@H](NC(=O)C1C[C@@H](OC(=O)N2Cc3cc4c(cc3C2)OCCO4)CN1C(=O)[C@@H](NC(=O)[C@@H](NC(=O)c1cnccn1)C1CCCCC1)C(C)(C)C)C(=O)C(=O)NC1CC1 (stereo partly shown) [Compound 33b] | – | 30 to 200 nM |
| C=C[C@H]1C[C@@]1(NC(=O)C1C[C@@H](OC(=O)N2Cc3cc4c(cc3C2)OCO4)CN1C(=O)[C@@H](NC(=O)OC(C)(C)C)C(C)(C)C)C(=O)NS(=O)(=O)C1CC1 (stereo partly shown) [Compound 30af] | < 30 nM | – |
| O=C1N[C@]2(C(=O)NS(=O)(=O)C3CC3)C[C@H]2/C=C\CCCCN(C2CC2)C(=O)C2C[C@H](OC(=O)N3Cc4cc5c(cc4C3)OCO5)C[C@@H]12 (stereo partly shown) [Compound 21a] | 30 to 200 nM | – |
| CC[C@H]1C[C@@]1(NC(=O)C1C[C@@H](OC(=O)N2Cc3cc4c(cc3C2)OCCCO4)CN1C(=O)[C@@H](NC(=O)[C@@H](NC(=O)OC(C)(C)C)C1CCCCC1)C(C)(C)C)C(=O)NS(=O)(=O)C1CC1 (stereo partly shown) [Compound 30ad] | – | 30 to 200 nM |
| CC[C@H]1C[C@@]1(NC(=O)C1C[C@@H](OC(=O)N(C)Cc2ccc3c(c2)OCO3)CN1C(=O)[C@@H](NC(=O)OC1CCCC1)C(C)(C)C)C(=O)NS(=O)(=O)C1CC1 (stereo partly shown) [Compound 30ap] | < 30 nM | – |
| O=C1N[C@]2(C(=O)NS(=O)(=O)C3CC3)C[C@H]2/C=C\CCCCCN(C2CC2)C(=O)N2CC(OC(=O)N3Cc4cccc(F)c4C3)C[C@@H]12 (stereo partly shown) [Compound 27-Ref-2, reference compound] | 30 to 200 nM | – |
| CC(C)S(=O)(=O)NC(=O)[C@@]12C[C@H]1/C=C\CCCCC[C@H](NC(=O)OC(C)(C)C)C(=O)N1C[C@H](OC(=O)N3Cc4cc5c(cc4C3)OCO5)C[C@H]1C(=O)N2 [Compound 12h] | < 30 nM | – |
| O=C1N[C@]2(C(=O)NS(=O)(=O)C3CC3)C[C@H]2/C=C\CCCCC[C@H](N2CCCS2(=O)=O)C(=O)N2C[C@H](OC(=O)N3Cc4cccc(F)c4C3)C[C@@H]12 [Compound 12m] | 30 to 200 nM | – |
| O=C1N[C@]2(C(=O)NS(=O)(=O)C3CC3)C[C@H]2/C=C\CCCCC[C@H](N2CCCS2(=O)=O)C(=O)N2C[C@H](OC(=O)N3Cc4cc5c(cc4C3)OCCO5)C[C@@H]12 [Compound 12j] | 30 to 200 nM | – |

| SMILES | IC50 [1] | IC50 |
| --- | --- | --- |
| C=C[C@H]1C[C@@]1(NC(=O)C1C[C@@H](OC(=O)N2Cc3cccc(F)c3C2)CN1C(=O)[C@@H](NC(=O)OC1CCCC1)C(C)(C)C)C(=O)NS(=O)(=O)C1CC1 (stereo partly shown) [Compound 30aq] | < 30 nM | – |
| C=C[C@H]1C[C@@]1(NC(=O)C1C[C@@H](OC(=O)N2Cc3ccc4c(c3C2)OCO4)CN1C(=O)[C@@H](NC(=O)OC(C)(C)C)C(C)(C)C)C(=O)NS(=O)(=O)C1CC1 (stereo partly shown) [Compound 30ah] | < 30 nM | – |
| CCC[C@H](NC(=O)C1C[C@@H](OC(=O)N2Cc3ccc4c(c3C2)OCCO4)CN1C(=O)[C@@H](NC(=O)[C@@H](NC(=O)c1cnccn1)C1CCCCC1)C(C)(C)C)C(=O)C(=O)NC1CC1 (stereo partly shown) [Compound 33d] | – | > 200 nM |
| O=C1N[C@]2(C(=O)NS(=O)(=O)C3CC3)C[C@H]2/C=C\CCCCC[C@H](Nc2ccccc2)C(=O)N2C[C@H](OC(=O)N3Cc4cc5c(cc4C3)OCO5)C[C@@H]12 [Compound 15a] | < 30 nM | – |
| CC[C@H]1C[C@@]1(NC(=O)C1C[C@@H](OC(=O)N2Cc3cc4c(cc3C2)OCO4)CN1C(=O)[C@@H](NC(=O)[C@@H](NC(=O)OC)C1CCCCC1)C(C)(C)C)C(=O)NS(=O)(=O)C1CC1 (stereo partly shown) [Compound 30x] | – | < 30 nM |
| CC(C)(C)OC(=O)N[C@H]1CCCCC/C=C\[C@@H]2C[C@@]2(C(=O)NS(=O)(=O)C2CC2)NC(=O)[C@@H]2C[C@@H](OC(=O)N3Cc4cc5c(cc4C3)OCCCO5)CN2C1=O [Compound 12p] | < 30 nM | – |
| C=C[C@H]1C[C@@]1(NC(=O)C1C[C@@H](OC(=O)N2Cc3cc4c(cc3C2)OCO4)CN1C(=O)[C@@H](NC(=O)[C@@H](NC(=O)NC(C)(C)C)C1CCCCC1)C(C)(C)C)C(=O)NS(=O)(=O)C1CC1 (stereo partly shown) [Compound 30ab] | – | < 30 nM |
| C=C[C@H]1C[C@@]1(NC(=O)C1C[C@@H](OC(=O)N2Cc3ccc4c(c3C2)OCO4)CN1C(=O)[C@@H](NC(=O)OC1CCCC1)C(C)(C)C)C(=O)NS(=O)(=O)C1CC1 (stereo partly shown) [Compound 30an] | < 30 nM | – |
| O=C1N[C@]2(C(=O)NS(=O)(=O)C3CC3)C[C@H]2/C=C\CCCCC[C@H](Nc2cccc(F)c2)C(=O)N2C[C@H](OC(=O)N3Cc4cc5c(cc4C3)OCO5)C[C@@H]12 [Compound 15b] | < 30 nM | – |
| O=C1N[C@]2(C(=O)NS(=O)(=O)C3CC3)C[C@H]2/C=C\CCCCC[C@H](NS(=O)(=O)c2ccc(Cl)cc2)C(=O)N2C[C@H](OC(=O)N3Cc4cc5c(cc4C3)OCO5)C[C@@H]12 [Compound 16a] | < 30 nM | – |
| CC[C@H]1C[C@@]1(NC(=O)C1C[C@@H](OC(=O)N2Cc3ccc4c(c3C2)OCCCO4)CN1C(=O)[C@@H](NC(=O)[C@@H](NC(=O)c1cnccn1)C1CCCCC1)C(C)(C)C)C(=O)NS(=O)(=O)C1CC1 (stereo partly shown) [Compound 30j] | – | < 30 nM |
| CCC[C@H](NC(=O)C1C[C@@H](OC(=O)N2Cc3cc4c(cc3C2)OCO4)CN1C(=O)[C@@H](NC(=O)[C@@H](NC(=O)c1cnccn1)C1CCCCC1)C(C)(C)C)C(=O)C(=O)NC1CC1 (stereo partly shown) [Compound 33a] | – | 30 to 200 nM |
| CC[C@H]1C[C@@]1(NC(=O)C1C[C@@H](OC(=O)N2Cc3cc4c(cc3C2)OCO4)CN1C(=O)[C@@H](NC(=O)[C@@H](NS(=O)(=O)c1ccccc1)C1CCCCC1)C(C)(C)C)C(=O)NS(=O)(=O)C1CC1 (stereo partly shown) [Compound 30r] | < 30 nM | – |
| C=C[C@H]1C[C@@]1(NC(=O)C1C[C@@H](OC(=O)N2Cc3cccc(F)c3C2)CN1C(=O)[C@@H](NC(=O)[C@@H](NC(=O)c1cnccn1)C1CCCCC1)C(C)(C)C)C(=O)NS(=O)(=O)C1CC1 (stereo partly shown) [Compound 30k] | – | < 30 nM |
| CC(C)(C)OC(=O)N[C@H]1CCCCC/C=C\[C@@H]2C[C@@]2(C(=O)NS(=O)(=O)C2CC2)NC(=O)[C@@H]2C[C@@H](OC(=O)N3Cc4ccc5c(c4C3)OCCO5)CN2C1=O [Compound 12b] | < 30 nM | – |
